We go through nine molecules from patent US6414004B1 (priority 1998, dated 2002).

The test system of one data set is HEp2 cells. Nature of the data set: Cytotoxicity, HEp2 cell proliferation (microscopy, MTT test). Format: cell-based. As to conditions: 48-72 h incubation at 37° C. Here is the method:
(§1) The cytotoxicity of each substance was determined by direct observation under microscope, and mitochondrial dehydrogenases activities were assayed according to the MTT test (F. Denizot et al., Immunol. Methods, 1986, 89, 271).
(§2) The concentration of compound which, after 48-72 h of incubation at 37° C., inhibited by 50% the cell proliferation was defined as cytotoxic dose 50% (CD50).
In general terms: Tetrazolium dyes change colour on reduction, which living cells bring about.

Another data set deals with HeLa cells. Nature of the data set: Cytotoxicity, HeLa cell proliferation (microscopy, MTT test). Format: cell-based. As to conditions: 48-72 h incubation at 37° C. The protocol: as §1, §2
For data set [1], the system named is Polio 1 (Brunhilde strain). Format: cell-based. Particulars: Polio 1, plaque reduction.
For another data set, the system named is ECHO 9 (ATCC: VR-133). Nature of the data set: Antiviral activity, direct inhibition of plaque number. It is filed as cell-based. As to conditions: ECHO 9, plaque reduction; read-out: Concentration inhibiting by 100% viral replication.
For data set [2], the system named is Measles (Edmonston strain). The data set is described as above. Format: cell-based. Particulars: Measles morbillivirus, read-out: Concentration inhibiting by 100% viral replication.
For data set [3], the system named is Coxsackie B1 (ATCC: VR-28). The data set is described as above. It is filed as cell-based. Particulars: Coxsackie B1, plaque reduction; read-out: Concentration inhibiting by 100% viral replication.
The next data set has as its system HRV-70. The data set can be described thus: Rhinovirus cytopathic effect reduction in HeLa-Ohio cells (MTT test). Particulars: Enterovirus, HRV70; HRV-70, HeLa-Ohio cells; read-out: Concentration inhibiting by 100% viral replication. It is filed as cell-based.
For another data set, the system named is HRV-86. The description is as above. Format: cell-based. Particulars: Enterovirus, HRV86; HRV-86, HeLa-Ohio cells; read-out: Concentration inhibiting by 100% viral replication.
In a further data set the test system is HRV-89. The description is as above. It is filed as cell-based. Particulars: HRV-89, HeLa-Ohio cells.
The next data set has as its system HRV-1B. Nature of the data set: Rhinovirus cytopathic effect reduction in HeLa-Ohio cells (MTT test). It is filed as cell-based. (Damage to the host cells serves as the signal in cytopathic effect assays.)
The next data set concerns HRV-2. The data set is described as above. It is filed as cell-based. Particulars: HRV-2, HeLa-Ohio cells.
Another data set deals with HRV-9. The data set is described as above. Particulars: HRV-9, HeLa-Ohio cells. Format: cell-based.
In another data set the test system is HRV-15. The description is as above. It is filed as cell-based. As to conditions: HRV-15, HeLa-Ohio cells.
For a further data set, the system named is HRV-29. The description is as above. As to conditions: HRV-29, HeLa-Ohio cells. Format: cell-based.
The next data set deals with HRV-14. Described as above. It is filed as cell-based. Particulars: HRV-14, HeLa-Ohio cells.

For the molecule `CSc1noc(-c2ccc(OCCOc3ccc(C)cc3)cc2)c1C#N` [ON-12, 3-Methylthio-5-[4-[2-(4-methylphenoxy)ethoxy]phenyl]-4-isoxazolecarbonitrile], the melting point (in general, the temperature of the solid-liquid transition) is 139 to 140 °C. Further, in the data set with HEp2 cells, the “Concentration inhibiting by 50% HEp2 cell proliferation: CD50” value is over 25 µM. Moreover, in the data set on HeLa cells, the “Concentration inhibiting by 50% HeLa cell proliferation: CD50” value is over 25 µM. The “Concentration inhibiting by 100% viral replication” value in data set [1] amounted to 1 µM. In the data set with ECHO 9 (ATCC: VR-133), the IC100 turned out to be 0.06 µM. Moreover, the IC100 in [2] is 10 µM. In addition, the IC100 in [3] was found to be 10 µM. Further, the IC100 in the data set on HRV-70 worked out at 5 µM. For the same molecule, the IC100 with HRV-86 was 5 µM. Further, the “Concentration inhibiting by 100% viral replication” value in the data set with HRV-89 turned out to be 5 µM.

`CSc1noc(-c2ccc(OCCOc3ccc([N+](=O)[O-])cc3)cc2)c1C#N` [ON-11, 3-Methylthio-5-[4-[2-(4-nitrophenoxy)ethoxy]phenyl]-4-isoxazolecarbonitrile]: the melting point was in the range of 170 to 171 °C. In addition, the “Concentration inhibiting by 50% HEp2 cell proliferation: CD50” value in the data set with HEp2 cells amounted to 25 µM. In the data set on HeLa cells, the “Concentration inhibiting by 50% HeLa cell proliferation: CD50” value stood at 10 µM. Besides, in the data set with ECHO 9 (ATCC: VR-133), the IC100 worked out at 4 µM. Further, the IC100 in data set [2] is 10 µM. The IC100 in data set [3] worked out at 10 µM. For the same molecule, the IC100 with HRV-70 came to 8 µM. For the same molecule, in the data set with HRV-86, the IC100 is 2 µM.

The molecule `CSc1noc(-c2ccc(OCCOc3ccccc3)cc2)c1C#N` [ON-8, 3-Methylthio-5-[4-(2-phenoxy-1-ethoxy)-phenyl]-4-isoxazolecarbonitrile] gave a melting point of 128 to 131 °C. The “Concentration inhibiting by 50% HEp2 cell proliferation: CD50” value in the data set with HEp2 cells was over 25 µM. Further, the “Concentration inhibiting by 50% HeLa cell proliferation: CD50” value in the data set on HeLa cells was over 25 µM. Moreover, the “Concentration inhibiting by 100% viral replication” value in data set [1] is 10 µM. Further, the IC100 in the data set with ECHO 9 (ATCC: VR-133) worked out at 0.2 µM. Also, the IC100 in [3] worked out at 10 µM. Further, the IC100 in the data set on HRV-70 turned out to be 5 µM. Besides, the IC100 in the data set with HRV-86 worked out at 5 µM. For the same molecule, the “Concentration inhibiting by 100% viral replication” value in the data set on HRV-89 is 5 µM. The “Concentration inhibiting by 100% viral replication” value with HRV-1B amounted to 5 µM.

`CSc1noc(-c2ccc(OCCCOc3ccccc3)cc2)c1C#N` [ON-9, 3-Methylthio-5-[4-(3-phenoxy-1-propoxy)-phenyl]-4-isoxazolecarbonitrile] gave a melting point of 121 to 123 °C. For the same molecule, in the data set on HEp2 cells, the “Concentration inhibiting by 50% HEp2 cell proliferation: CD50” value is 20 µM. The “Concentration inhibiting by 50% HeLa cell proliferation: CD50” value in the data set with HeLa cells came to 20 µM. Moreover, the IC100 with ECHO 9 (ATCC: VR-133) came to 0.1 µM. The IC100 in data set [2] turned out to be 10 µM. The IC100 in data set [3] is 1 µM. The IC100 in the data set on HRV-70 turned out to be 5 µM. Moreover, the IC100 with HRV-86 was 5 µM. Further, the “Concentration inhibiting by 100% viral replication” value in the data set on HRV-89 amounted to 5 µM. Moreover, the “Concentration inhibiting by 100% viral replication” value in the data set with HRV-1B is 10 µM.

Consider `CSc1noc(-c2ccc(OCCc3ccccc3)cc2)c1C#N` [ON-6, 3-Methylthio-5-[4-(2-phenyl-1-ethoxy)-phenyl]-4-isoxazolecarbonitrile], for which, in the data set on HEp2 cells, the “Concentration inhibiting by 50% HEp2 cell proliferation: CD50” value is over 20 µM. In the data set with HeLa cells, the “Concentration inhibiting by 50% HeLa cell proliferation: CD50” value was over 20 µM. For the same molecule, the “Concentration inhibiting by 100% viral replication” value in data set [1] is 0.2 µM; with HRV-2 it was 4 µM; in the data set on HRV-9, 8 µM; in the data set with HRV-15, 6 µM; with HRV-29, 2 µM; with HRV-89, 2 µM. For the same molecule, in the data set with HRV-1B, the “Concentration inhibiting by 100% viral replication” value stood at 5 µM. Moreover, the IC100 in the data set on ECHO 9 (ATCC: VR-133) was 0.2 µM; in [2], 1 µM; in data set [3], 10 µM; in the data set with HRV-70, 10 µM; with HRV-86, 6 µM.

`CCOC(=O)c1ccc(OCCOc2ccc(-c3onc(SC)c3C#N)cc2)cc1` [ON-13, Ethyl-4-[[2-[4-(3-methylthio-4-cyano-5-isoxazolyl)-phenoxy]-ethyl]-oxy]benzoate] showed a melting point of 162 to 164 °C. Besides, the “Concentration inhibiting by 50% HEp2 cell proliferation: CD50” value in the data set on HEp2 cells was found to be 25 µM. In the data set with HeLa cells, the “Concentration inhibiting by 50% HeLa cell proliferation: CD50” value worked out at 10 µM. For the same molecule, the “Concentration inhibiting by 100% viral replication” value in data set [1] was determined as 10 µM. Also, the IC100 in data set [2] came out at 0.2 µM. Moreover, the IC100 in data set [3] was 0.1 µM. Besides, the “Concentration inhibiting by 100% viral replication” value in the data set on HRV-14 was 2 µM. Moreover, the IC100 in the data set with HRV-70 worked out at 1 µM. The IC100 with HRV-86 is 1 µM.

Consider `CSc1noc(-c2ccc(OCCCCOc3ccccc3)cc2)c1C#N` [ON-10, 3-Methylthio-5-[4-(4-phenoxy-1-butoxy)-phenyl]-4-isoxazolecarbonitrile], for which the melting point lay within 113 to 114 °C. In the data set with HEp2 cells, the “Concentration inhibiting by 50% HEp2 cell proliferation: CD50” value turned out to be 10 µM. Besides, the “Concentration inhibiting by 50% HeLa cell proliferation: CD50” value in the data set on HeLa cells turned out to be 10 µM. Also, the IC100 in the data set with ECHO 9 (ATCC: VR-133) stood at 1 µM. In addition, the IC100 in data set [2] was determined as 0.02 µM. In [3], the IC100 amounted to 0.02 µM. Moreover, the “Concentration inhibiting by 100% viral replication” value in the data set on HRV-14 was 1 µM. For the same molecule, the “Concentration inhibiting by 100% viral replication” value in the data set with HRV-29 amounted to 1 µM. The IC100 in the data set on HRV-70 amounted to 1 µM. In addition, the IC100 with HRV-86 amounted to 1 µM. In addition, the “Concentration inhibiting by 100% viral replication” value with HRV-89 came out at 1 µM. The “Concentration inhibiting by 100% viral replication” value with HRV-1B is 2 µM.

Molecule `CSc1noc(-c2ccc(OCCCc3ccccc3)cc2)c1C#N` [ON-7, 3-Methylthio-5-[4-(3-phenyl-1-propoxy)-phenyl]-4-isoxazolecarbonitrile] gave a melting point of 99 to 100 °C. Besides, in the data set with HEp2 cells, the “Concentration inhibiting by 50% HEp2 cell proliferation: CD50” value was over 25 µM. In addition, the “Concentration inhibiting by 50% HeLa cell proliferation: CD50” value in the data set on HeLa cells is over 25 µM. For the same molecule, the “Concentration inhibiting by 100% viral replication” value in [1] is 0.4 µM. Besides, the IC100 with ECHO 9 (ATCC: VR-133) was found to be 0.2 µM. Further, the IC100 in [2] amounted to 10 µM. Moreover, in [3], the IC100 was found to be 0.6 µM. Further, in the data set with HRV-29, the “Concentration inhibiting by 100% viral replication” value stood at 5 µM. In addition, the IC100 in the data set on HRV-70 is 5 µM. Besides, in the data set on HRV-86, the IC100 was found to be 5 µM. Further, the “Concentration inhibiting by 100% viral replication” value with HRV-89 came out at 5 µM. Besides, the “Concentration inhibiting by 100% viral replication” value with HRV-1B was 5 µM.

For the molecule `CSc1noc(-c2ccc(OCCOc3ccc(Br)cc3)cc2)c1C#N` [ON-14, 3-Methylthio-5-[4-[2-(4-bromophenoxy)ethoxy]phenyl]-4-isoxazolecarbonitrile], the melting point was in the range of 156 to 157 °C. For the same molecule, the “Concentration inhibiting by 50% HEp2 cell proliferation: CD50” value in the data set on HEp2 cells is over 25 µM. Moreover, the “Concentration inhibiting by 50% HeLa cell proliferation: CD50” value in the data set on HeLa cells was 10 µM. Further, the “Concentration inhibiting by 100% viral replication” value in data set [1] was found to be 1 µM. Further, the IC100 in the data set on ECHO 9 (ATCC: VR-133) is 0.06 µM. Further, in data set [2], the IC100 turned out to be 0.2 µM. Also, in data set [3], the IC100 worked out at 0.06 µM. In the data set on HRV-14, the “Concentration inhibiting by 100% viral replication” value was 2 µM. Besides, in the data set on HRV-70, the IC100 came to 2 µM. Further, the IC100 with HRV-86 came to 2 µM. The “Concentration inhibiting by 100% viral replication” value in the data set on HRV-89 stood at 2 µM.
